Values after ≈ are worked out from the molar mass of the structure shown. Active and inactive are the calls of the source. The calls are words filed in the database; no cut-off is given here.
What was measured:
[1] = system: Staphylococcus aureus; experiment: Antibacterial activity against methicillin-sensitive Staphylococcus aureus ATCC 25923 at 256 ug/ml after 24 hrs by disc diffusion method; assay type: functional, organism-based
[2] = system: Staphylococcus aureus; experiment: Antibacterial activity against methicillin-resistant Staphylococcus aureus ATCC 43300 at 256 ug/ml after 24 hrs by disc diffusion method; assay type: functional, organism-based
[3] = system: Staphylococcus aureus; experiment: Antibacterial activity against methicillin-sensitive Staphylococcus aureus ATCC 25923 at 102.4 mg/ml after 24 hrs by disc diffusion method; assay type: functional; details: ATCC 25923, 24 h, read-out: DIZ
[4] = system: Staphylococcus aureus; experiment: Antibacterial activity against methicillin-resistant Staphylococcus aureus ATCC 43300 at 102.4 mg/ml after 24 hrs by disc diffusion method; assay type: functional; details: ATCC 43300, 24 h, read-out: DIZ
[5] = system: Staphylococcus aureus; experiment: Antibacterial activity against methicillin-sensitive Staphylococcus aureus ATCC 25923 after 24 hrs by microdilution method; assay type: functional
[6] = system: Staphylococcus aureus; experiment: Antibacterial activity against methicillin-resistant Staphylococcus aureus ATCC 43300 after 24 hrs by microdilution method; assay type: functional
[7] = system: Staphylococcus aureus; experiment: Antibacterial activity against methicillin-sensitive Staphylococcus aureus ATCC 25923 after 24 hrs by microdilution method in presence of non-beta lactam antibiotic Doxycycline; assay type: functional
[8] = system: Staphylococcus aureus; experiment: Antibacterial activity against methicillin-resistant Staphylococcus aureus ATCC 43300 after 24 hrs by microdilution method in presence of non-beta lactam antibiotic Doxycycline; assay type: functional
[9] = system: Staphylococcus aureus; experiment: Antibacterial activity against methicillin-sensitive Staphylococcus aureus ATCC 25923 at 30 ug/ml after 24 hrs by disc diffusion method; assay type: functional; details: ATCC 25923, 24 h, read-out: DIZ
[10] = system: Staphylococcus aureus; experiment: Antibacterial activity against methicillin-resistant Staphylococcus aureus ATCC 43300 at 30 ug/ml after 24 hrs by disc diffusion method; assay type: functional; details: ATCC 43300, 24 h, read-out: DIZ
[11] = system: Staphylococcus aureus; experiment: Antibacterial activity against methicillin-sensitive Staphylococcus aureus ATCC 25923 at 2 ug/ml after 24 hrs by disc diffusion method; assay type: functional; details: ATCC 25923, 24 h, read-out: DIZ
[12] = system: Staphylococcus aureus; experiment: Antibacterial activity against methicillin-resistant Staphylococcus aureus ATCC 43300 at 2 ug/disc after 24 hrs by disc diffusion method; assay type: functional, organism-based
[13] = system: Staphylococcus aureus; experiment: Antibacterial activity against methicillin-resistant Staphylococcus aureus ATCC 43300 after 24 hrs by microdilution method in presence of non-beta lactam antibiotic ciprofloxacin; assay type: functional
[14] = system: Staphylococcus aureus; experiment: microbe, parasite or virus in culture; details: ATCC 25923, 24 h, read-out: DIZ
Description: Antibacterial activity against methicillin-sensitive Staphylococcus aureus ATCC 25923 at 5 ug/ml after 24 hrs by disc diffusion method

[15] = system: Staphylococcus aureus; experiment: microbe, parasite or virus in culture; details: ATCC 43300, 24 h, read-out: DIZ
Description: Antibacterial activity against methicillin-resistant Staphylococcus aureus ATCC 43300 at 5 ug/ml after 24 hrs by disc diffusion method

[16] = system: Staphylococcus aureus; experiment: Antibacterial activity against methicillin-sensitive Staphylococcus aureus ATCC 25923 after 24 hrs by microdilution method in presence of non-beta lactam antibiotic ciprofloxacin; assay type: functional
[17] = system: Staphylococcus aureus; experiment: Antibacterial activity against methicillin-sensitive Staphylococcus aureus ATCC 25923 after 24 hrs by microdilution method in presence of non-beta lactam antibiotic gentamycin; assay type: functional
[18] = system: Staphylococcus aureus; experiment: Antibacterial activity against methicillin-resistant Staphylococcus aureus ATCC 43300 after 24 hrs by microdilution method in presence of non-beta lactam antibiotic gentamycin; assay type: functional
[19] = system: Staphylococcus aureus; experiment: Antibacterial activity against methicillin-sensitive Staphylococcus aureus ATCC 25923 at 15 ug/ml after 24 hrs by disc diffusion method; assay type: functional; details: ATCC 25923, 24 h, read-out: DIZ
[20] = system: Staphylococcus aureus; experiment: Antibacterial activity against methicillin-resistant Staphylococcus aureus ATCC 43300 at 15 ug/disc after 24 hrs by disc diffusion method; assay type: functional, organism-based

Compound	diameter of the inhibition zone (DIZ) [1]	diameter of the inhibition zone (DIZ) [2]	further results
O=C(/C=C/c1ccccc1)c1ccccc1O	inactive	inactive	
O=C(/C=C/c1ccccc1O)c1ccc(Br)cc1			zone of inhibition at 102400 µg/mL [3]: 13 mm; zone of inhibition at 102400 µg/mL [4]: 13 mm; MIC ([5]; ATCC 25923, 24 h): 32 µg/mL (≈ 106 µM); MIC ([6]; ATCC 43300, 24 h): 64 µg/mL (≈ 211 µM); fractional inhibitory concentration index (FICI) [7]: 0.37; fractional inhibitory concentration index (FICI) [8]: 0.62
O=C(/C=C/c1ccccc1)c1ccccc1	inactive	inactive	
GENTAMICIN			MIC [5]: 1 µg/mL; MIC [6]: 4 µg/mL
COc1cccc(/C=C/C(=O)c2ccc(Br)cc2)c1	inactive	inactive	
C[C@H]1c2cccc(O)c2C(=O)C2=C(O)[C@]3(O)C(=O)C(C(N)=O)=C(O)[C@@H](N(C)C)[C@@H]3[C@@H](O)[C@@H]21.O [DOXYCYCLINE]			zone of inhibition at 30 µg/mL [9]: 27 mm; zone of inhibition at 30 µg/mL [10]: 27 mm; MIC ([5]; ATCC 25923, 24 h): 8 µg/mL; MIC ([6]; ATCC 43300, 24 h): 4 µg/mL
COc1cc(/C=C/C(=O)c2ccccc2O)cc(OC)c1OC	inactive	inactive	
COc1ccc(/C=C/C(=O)c2ccccc2O)cc1OC	inactive	inactive	
COc1ccc(/C=C/C(=O)c2ccccc2)cc1OC	inactive	inactive	
COc1ccc2cc3[n+](cc2c1OC)CCc1cc2c(cc1-3)OCO2 [BERBERINE]			MIC ([6]; ATCC 43300, 24 h): 128 µg/mL
COc1ccc(/C=C/C(=O)c2ccc(Br)cc2)cc1	inactive	inactive	
CCC[C@@H]1C[C@@H](C(=O)N[C@@H]([C@H]2O[C@H](SC)[C@H](O)[C@@H](O)[C@H]2O)[C@H](C)Cl)N(C)C1 [CLINDAMYCIN]			zone of inhibition at 2 µg/mL [11]: 24 mm; diameter of the inhibition zone (DIZ) [12]: inactive
COc1cccc(/C=C/C(=O)c2ccc(Br)cc2)c1OC	inactive	inactive	
O=C(/C=C/c1ccccc1O)c1ccccc1			zone of inhibition at 102400 µg/mL [3]: 11 mm; zone of inhibition at 102400 µg/mL [4]: 11 mm; MIC ([5]; ATCC 25923, 24 h): 32 µg/mL (≈ 143 µM); MIC ([6]; ATCC 43300, 24 h): 64 µg/mL (≈ 285 µM); fractional inhibitory concentration index (FICI) [7]: 0.31; fractional inhibitory concentration index (FICI) [8]: 0.15; fractional inhibitory concentration index (FICI) [13]: 0.75
COc1ccccc1/C=C/C(=O)c1ccccc1	inactive	inactive	
COc1ccc(C(=O)/C=C/c2ccc(OC)c(OC)c2)c(O)c1	inactive	inactive	
O=C(/C=C/c1ccccc1)c1ccc(Br)cc1	inactive	inactive	
O=C(O)c1cn(C2CC2)c2cc(N3CCNCC3)c(F)cc2c1=O [CIPROFLOXACIN]			MIC ([5]; ATCC 25923, 24 h): 0.25 µg/mL (≈ 0.754 µM); MIC ([6]; ATCC 43300, 24 h): 0.5 µg/mL (≈ 1.51 µM); zone of inhibition at 5 µg/mL [14]: 27 mm; zone of inhibition at 5 µg/mL [15]: 21 mm
O=C(/C=C/c1ccc(O)cc1)c1ccccc1 [4-HYDROXYCHALCONE]			zone of inhibition at 102400 µg/mL [3]: 10 mm; zone of inhibition at 102400 µg/mL [4]: 9 mm; MIC ([5]; ATCC 25923, 24 h): 64 µg/mL (≈ 285 µM); MIC ([6]; ATCC 43300, 24 h): 32 µg/mL (≈ 143 µM); fractional inhibitory concentration index (FICI) [16]: 0.31; fractional inhibitory concentration index (FICI) [8]: 0.62; fractional inhibitory concentration index (FICI) [13]: 0.25

Compound	diameter of the inhibition zone (DIZ) [1]	diameter of the inhibition zone (DIZ) [2]	further results
COc1ccccc1/C=C/C(=O)c1ccc(Br)cc1	inactive	inactive	
O=C(/C=C/c1ccccc1O)c1ccccc1O			zone of inhibition at 102400 µg/mL [3]: 14 mm; zone of inhibition at 102400 µg/mL [4]: 14 mm; MIC ([5]; ATCC 25923, 24 h): 64 µg/mL (≈ 266 µM); MIC ([6]; ATCC 43300, 24 h): 64 µg/mL (≈ 266 µM); fractional inhibitory concentration index (FICI) [7]: 0.25; fractional inhibitory concentration index (FICI) [16]: 1.5; fractional inhibitory concentration index (FICI) [17]: 0.36; fractional inhibitory concentration index (FICI) [8]: 0.15; fractional inhibitory concentration index (FICI) [13]: 0.62; fractional inhibitory concentration index (FICI) [18]: 0.5
O=C(/C=C/c1ccc(Cl)cc1)c1ccccc1O	inactive	inactive	
COc1ccc(/C=C/C(=O)c2ccc(OC)cc2O)cc1	inactive	inactive	
COc1cccc(/C=C/C(=O)c2ccccc2)c1OC	inactive	inactive	
COc1ccc(/C=C/C(=O)c2ccccc2O)c(OC)c1	inactive	inactive	
O=C(N[C@H](CO)[C@H](O)c1ccc([N+](=O)[O-])cc1)C(Cl)Cl [CHLORAMPHENICOL]			zone of inhibition at 30 µg/mL [9]: 25 mm; zone of inhibition at 30 µg/mL [10]: 26 mm
COc1ccc(/C=C/C(=O)c2ccccc2)cc1	inactive	inactive	
COc1ccc(C(=O)/C=C/c2cc(OC)c(OC)c(OC)c2)c(O)c1	inactive	inactive	
CN[C@H](CC(C)C)C(=O)N[C@H]1C(=O)N[C@@H](CC(N)=O)C(=O)N[C@H]2C(=O)N[C@H]3C(=O)N[C@H](C(=O)N[C@H](C(=O)O)c4cc(O)cc(O)c4-c4cc3ccc4O)[C@H](O)c3ccc(c(Cl)c3)Oc3cc2cc(c3O[C@@H]2O[C@H](CO)[C@@H](O)[C@H](O)[C@H]2O[C@H]2C[C@](C)(N)[C@H](O)[C@H](C)O2)Oc2ccc(cc2Cl)[C@H]1O [VANCOMYCIN]			zone of inhibition at 30 µg/mL [9]: 17 mm; zone of inhibition at 30 µg/mL [10]: 16 mm; MIC ([6]; ATCC 43300, 24 h): 8 µg/mL (≈ 5.52 µM)
COc1ccccc1/C=C/C(=O)c1ccccc1O	inactive	inactive	
COc1ccc(C(=O)/C=C/c2ccccc2)c(O)c1	inactive	inactive	
CC[C@H]1OC(=O)[C@H](C)[C@@H](O[C@H]2C[C@@](C)(OC)[C@@H](O)[C@H](C)O2)[C@H](C)[C@@H](O[C@@H]2O[C@H](C)C[C@H](N(C)C)[C@H]2O)[C@](C)(O)C[C@@H](C)C(=O)[C@H](C)[C@@H](O)[C@]1(C)O [ERYTHROMYCIN]			zone of inhibition at 15 µg/mL [19]: 25 mm; diameter of the inhibition zone (DIZ) [20]: inactive
COc1ccc(C(=O)/C=C/c2ccc(Cl)c(Cl)c2)c(O)c1	inactive	inactive	
COc1ccc(C(=O)/C=C/c2ccc(OC)cc2OC)c(O)c1	inactive	inactive	
COc1ccc(/C=C/C(=O)c2ccc(Br)cc2)cc1OC	inactive	inactive	
COc1ccc(/C=C/C(=O)c2ccccc2O)cc1	inactive	inactive	
COc1ccc(C(=O)/C=C/c2ccc(Cl)cc2)c(O)c1	inactive	inactive	
O=C(/C=C/c1ccc(Cl)c(Cl)c1)c1ccccc1O	inactive	inactive	

From ChEMBL document CHEMBL2046424, “Synthesis and anti Methicillin resistant Staphylococcus aureus activity of substituted chalcones alone and in combination with non-beta-lactam antibiotics” (2012)
